This is an account of results in patent US9663473B2 (Actelion Pharmaceuticals Ltd, priority 2013, dated 2017).

The target in one test is T1, ALXR (Homo sapiens, UniProt P25090).
T1 sequence (P25090 1-351): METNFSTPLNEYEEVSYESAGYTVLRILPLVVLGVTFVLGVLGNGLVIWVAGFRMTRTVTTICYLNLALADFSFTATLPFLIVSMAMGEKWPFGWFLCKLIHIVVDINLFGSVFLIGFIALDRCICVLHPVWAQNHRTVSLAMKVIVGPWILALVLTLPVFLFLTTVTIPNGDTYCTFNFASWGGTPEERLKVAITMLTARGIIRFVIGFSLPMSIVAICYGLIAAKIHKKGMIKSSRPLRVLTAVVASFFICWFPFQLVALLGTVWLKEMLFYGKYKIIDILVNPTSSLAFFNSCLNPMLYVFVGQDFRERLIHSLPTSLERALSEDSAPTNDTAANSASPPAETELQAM
Conditions: cited from earlier work.

Test [1] concerns human fibroblast-like synoviocytes. Conditions: cited from earlier work.
The next test relates to dry corneal surface. Conditions: topical treatment; cited from earlier work.
Test [2] has as its system collagen-induced arthritis. The note with it: in vivo; cited from earlier work.
Test [3] has as its target T2, recombinant human ALX receptor (Homo sapiens, UniProt P25090).
T2 construct: expressed in transfected cells; host or cells: HEK293 (HEK293-hALXR-Gα16)
T2 sequence (P25090 1-351): T1 sequence (P25090 1-351)
Briefly: Intracellular calcium measurements (FLIPR), ALX receptor agonistic activity. Type of test: cell-based. Conditions: HEK293-hALXR-Gα16 cells, Fluo-4 calcium signal, normalized to WKYMVm 10 nM. An outline of the steps: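 Agonist-induced calcium flux was read by FLIPR (488/540 nm) as baseline-subtracted peak emission, expressed relative to WKYMVm at 10 nM final. Cells used: HEK293-hALXR-Gα16, dye-loaded 60 min at 37° C. with 1 μM Fluo-4 AM before compound dose-response addition.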

The test system of test [4] is models of Alzheimer's Disease. The note with it: cited from earlier work.

Regarding `CCCCC[C@H](O)/C=C/C=C\C=C\C=C\[C@@H](O)[C@@H](O)CCCC(=O)O` [Lipoxin A4, lipoxin A4], the “binding to ALXR” value on ALXR is recorded as “high affinity”. The IL-6 expression entry in test [1] was “inhibited IL-6 expression”. The “re-epithelization and inflammation of the dry corneal surface” value with dry corneal surface is “increases re-epithelization and decreases inflammation of the dry corneal surface”.
With `COC(=O)CCC[C@H](O)[C@H](O)CO` [BML-111], the “severity of collagen-induced arthritis” value in test [2] was “reduced the severity of collagen-induced arthritis”.
Usually EC50 stands for the concentration needed to bring the measured effect to its halfway point. Regarding `COc1ccc(C[C@@H](NC(=O)N[C@@H](C)c2ccc(Br)cc2)c2nc3ccccc3[nH]2)cc1` [Example 331, 1-((R)-1-(1H-Benzo[d]imidazol-2-yl)-2-(4-methoxyphenyl)ethyl)-3-((S)-1-(4-bromophenyl)ethyl)urea], the EC50 in test [3] was 146 nM.
On to `COc1ccc(C[C@@H](NC(=O)NCc2nc(C(C)(F)F)co2)c2nc3ccccc3[nH]2)cc1` [Example 423, (R)-1-(1-(1H-benzo[d]imidazol-2-yl)-2-(4-methoxyphenyl)ethyl)-3-((4-(1,1-difluoroethyl)oxazol-2-yl)methyl)urea], for which, in test [3], the EC50 amounted to 565 nM.
In the case of `O=C(N[C@H](Cc1ccc(Br)cc1)c1nc2ccc(C(F)(F)F)cc2[nH]1)N[C@H]1CC[C@H](O)CC1` [Example 222, 1-((R)-2-(4-Bromophenyl)-1-(6-(trifluoromethyl)-1H-benzo[d]imidazol-2-yl)ethyl)-3-(trans-4-hydroxycyclohexyl)urea], in test [3], the EC50 is 7.8 nM.
The same measure, in the same setting: next, `COc1ccc(C[C@@H](NC(=O)NC2CCNC(=O)C2)c2nc3ccccc3[nH]2)cc1` (stereo partly drawn) [Example 174, 1-((R)-1-(1H-Benzo[d]imidazol-2-yl)-2-(4-methoxyphenyl)ethyl)-3-(2-oxopiperidin-4-yl)urea]: 288 nM; `COc1ccc(C[C@@H](NC(=O)Nc2c(-c3ccccc3)noc2C)c2nc3ccccc3[nH]2)cc1` [Example 213, (R)-1-(1-(1H-Benzo[d]imidazol-2-yl)-2-(4-methoxyphenyl)ethyl)-3-(5-methyl-3-phenylisoxazol-4-yl)urea]: 53 nM.
Take “humanin: high-affinity ligand for FPR2, neuroprotective in models of Alzheimer's Disease (MAPRGFSCLLLLTSEIDLPVKRRA; Humanin; UniProt Q8IVG9 1-24, looked up)”: the neuroprotection result in test [4] is reported as “neuroprotective”.
For the molecule `COc1ccc(C[C@@H](NC(=O)NCCc2cccc(OC)c2)c2nc3ccccc3[nH]2)cc1` [Example 6, (R)-1-(1-(1H-Benzo[d]imidazol-2-yl)-2-(4-methoxyphenyl)ethyl)-3-(3-methoxyphenethyl)urea], in test [3], the EC50 came to 378 nM.
Turning to `COc1ccc(C[C@@H](NC(=O)NC2(C)COC2)c2nc3ccccc3[nH]2)cc1` [Example 109, (R)-1-(1-(1H-Benzo[d]imidazol-2-yl)-2-(4-methoxyphenyl)ethyl)-3-(3-methyloxetan-3-yl)urea], the EC50 in test [3] came out at 634 nM.
Same read-out and setting: the figure for `COc1ccc(CC(NC(=O)Nc2ccnn2-c2ccccn2)c2nc3ccccc3[nH]2)cc1` (stereo not shown) [Example 411, 1-(1-(1H-benzo[d]imidazol-2-yl)-2-(4-methoxyphenyl)ethyl)-3-(1-(pyridin-2-yl)-1H-pyrazol-5-yl)urea] is 56 nM; for `COc1ccc(C[C@@H](NC(=O)NCC2CCCCC2)c2nc3ccccc3[nH]2)cc1` [Example 98, (R)-1-(1-(1H-Benzo[d]imidazol-2-yl)-2-(4-methoxyphenyl)ethyl)-3-(cyclohexylmethyl)urea] it is 432 nM; for `COc1ccc(CC(NC(=O)Nc2ccnn2-c2ccccc2OC)c2nc3ccccc3[nH]2)cc1` (stereo not shown) [Example 421, 1-(1-(1H-benzo[d]imidazol-2-yl)-2-(4-methoxyphenyl)ethyl)-3-(1-(2-methoxyphenyl)-1H-pyrazol-5-yl)urea] it is 46 nM.
As to `COc1ccc(C[C@@H](NC(=O)NC(C)c2ccncn2)c2nc3ccccc3[nH]2)cc1` (stereo partly drawn) [Example 386, 1-((R)-1-(1H-Benzo[d]imidazol-2-yl)-2-(4-methoxyphenyl)ethyl)-3-(1-(pyrimidin-4-yl)ethyl)urea], the EC50 in test [3] is 1240 nM.
Regarding `COc1cc(F)c(CC(NC(=O)NC23CCC(O)(CC2)CC3)c2nc3ccccc3[nH]2)cc1F` (stereo not shown) [Example 249, 1-(1-(1H-Benzo[d]imidazol-2-yl)-2-(2,5-difluoro-4-methoxyphenyl)ethyl)-3-(4-hydroxybicyclo[2.2.2]octan-1-yl)urea], the EC50 in test [3] was 4.2 nM.
As to `COc1ccc(C[C@@H](NC(=O)N[C@H]2CCCC[C@H]2C(N)=O)c2nc3ccccc3[nH]2)cc1` (relative stereo) [Example 18, (1R*,2S*)-2-(3-((R)-1-(1H-Benzo[d]imidazol-2-yl)-2-(4-methoxyphenyl)ethyl)ureido)cyclohexanecarboxamide], the EC50 in test [3] is 29 nM.
Still for that read-out and setting: next, `COc1ccc(CC(NC(=O)N[C@H]2CC[C@](C)(O)CC2)c2nc3ccc(F)cc3[nH]2)c(F)c1` (mixture of isomers) [Example 246, 1-(1-(6-Fluoro-1H-benzo[d]imidazol-2-yl)-2-(2-fluoro-4-methoxyphenyl)ethyl)-3-(trans-4-hydroxy-4-methylcyclohexyl)urea]: 1.8 nM; `COc1ccc(CC(NC(=O)NC23CCC(O)(CC2)CC3)c2nc3ccc(F)cc3[nH]2)cc1F` (single isomer, unassigned; ent-1) [Example 319, 1-(1-(6-Fluoro-1H-benzo[d]imidazol-2-yl)-2-(3-fluoro-4-methoxyphenyl)ethyl)-3-(4-hydroxybicyclo[2.2.2]octan-1-yl)urea (ent-1)]: 1 nM.
Same read-out and setting: the figure for `COc1ccc(C[C@@H](NC(=O)NC2CCC(C)CC2)c2nc3ccccc3[nH]2)cc1` (stereo partly drawn) [Example 22, (R)-1-(1-(1H-Benzo[d]imidazol-2-yl)-2-(4-methoxyphenyl)ethyl)-3-(4-methylcyclohexyl)urea] is 85 nM; for `CCc1ccc(CC(NC(=O)N[C@H]2CC[C@H](O)CC2)c2nc3cc(F)ccc3[nH]2)cc1` (single isomer, unassigned; ent-1) [Example 368, 1-(2-(4-Ethylphenyl)-1-(5-fluoro-1H-benzo[d]imidazol-2-yl)ethyl)-3-(trans-4-hydroxycyclohexyl)urea (ent-1)] it is 1.8 nM; for `COc1ccc(C[C@@H](NC(=O)N[C@H]2CC[C@H](C(=O)OC)CC2)c2nc3ccccc3[nH]2)cc1` [Example 224, trans-Methyl 4-(3-((R)-1-(1H-benzo[d]imidazol-2-yl)-2-(4-methoxyphenyl)ethyl)ureido)cyclohexanecarboxylate] it is 8.2 nM.
Consider `C[C@]1(O)CC[C@H](NC(=O)NC(Cc2ccc(C(F)(F)F)c(F)c2)c2nc3ccccc3[nH]2)CC1` (mixture of isomers) [Example 239, 1-(1-(1H-Benzo[d]imidazol-2-yl)-2-(3-fluoro-4-(trifluoromethyl)phenyl)ethyl)-3-(trans-4-hydroxy-4-methylcyclohexyl)urea], for which the EC50 in test [3] came out at 77 nM.
On to `COc1ccc(C[C@@H](NC(=O)NC2(c3ccccc3)CC2)c2nc3ccccc3[nH]2)cc1` [Example 351, (R)-1-(1-(1H-Benzo[d]imidazol-2-yl)-2-(4-methoxyphenyl)ethyl)-3-(1-phenylcyclopropyl)urea], for which the EC50 in test [3] was 350 nM.
